Patent publication US8859543B2, “Imidazo[1,2-a]pyrazine derivatives and their use for the prevention or treatment of neurological, psychiatric and metabolic disorders and diseases” (Janssen Pharmaceutica NV, priority 2010, dated 2014)

Legend:
PDE1B = PDE1B (Homo sapiens, UniProt Q01064); assay: In vitro PDE selectivity assay, PDE1B; type: biochemical; conditions: Table 4a in vitro selectivity; read-out: IC50 PDE type 1B
Method: (§1) Rat recombinant PDE10A (rPDE10A2) was expressed in Sf9 cells using a recombinant rPDE10A baculovirus construct. Cells were harvested after 48 h of infection and the rPDE10A protein was purified by metal chelate chromatography on Ni-sepharose 6FF. […] The reaction was incubated for 60 min. at RT. […] After sedimentation of the beads during 30 min. the radioactivity was measured in a Perkin Elmer Topcount scintillation counter and results were expressed as cpm. For blank values the enzyme was omitted from the reaction and replaced by incubation buffer. […] The same assay principle is applied for the measurement of the affinity of the compound for other members of the PDE family with appropriate modifications in incubation buffer, substrate concentration, incubation time and stop solution.

PDE3A = PDE3A (Homo sapiens, UniProt Q14432); assay: In vitro PDE selectivity assay, PDE3A; type: biochemical; conditions: Table 4a in vitro selectivity; read-out: IC50 PDE type 3A
Sequence of PDE3A (Q14432 whole entry): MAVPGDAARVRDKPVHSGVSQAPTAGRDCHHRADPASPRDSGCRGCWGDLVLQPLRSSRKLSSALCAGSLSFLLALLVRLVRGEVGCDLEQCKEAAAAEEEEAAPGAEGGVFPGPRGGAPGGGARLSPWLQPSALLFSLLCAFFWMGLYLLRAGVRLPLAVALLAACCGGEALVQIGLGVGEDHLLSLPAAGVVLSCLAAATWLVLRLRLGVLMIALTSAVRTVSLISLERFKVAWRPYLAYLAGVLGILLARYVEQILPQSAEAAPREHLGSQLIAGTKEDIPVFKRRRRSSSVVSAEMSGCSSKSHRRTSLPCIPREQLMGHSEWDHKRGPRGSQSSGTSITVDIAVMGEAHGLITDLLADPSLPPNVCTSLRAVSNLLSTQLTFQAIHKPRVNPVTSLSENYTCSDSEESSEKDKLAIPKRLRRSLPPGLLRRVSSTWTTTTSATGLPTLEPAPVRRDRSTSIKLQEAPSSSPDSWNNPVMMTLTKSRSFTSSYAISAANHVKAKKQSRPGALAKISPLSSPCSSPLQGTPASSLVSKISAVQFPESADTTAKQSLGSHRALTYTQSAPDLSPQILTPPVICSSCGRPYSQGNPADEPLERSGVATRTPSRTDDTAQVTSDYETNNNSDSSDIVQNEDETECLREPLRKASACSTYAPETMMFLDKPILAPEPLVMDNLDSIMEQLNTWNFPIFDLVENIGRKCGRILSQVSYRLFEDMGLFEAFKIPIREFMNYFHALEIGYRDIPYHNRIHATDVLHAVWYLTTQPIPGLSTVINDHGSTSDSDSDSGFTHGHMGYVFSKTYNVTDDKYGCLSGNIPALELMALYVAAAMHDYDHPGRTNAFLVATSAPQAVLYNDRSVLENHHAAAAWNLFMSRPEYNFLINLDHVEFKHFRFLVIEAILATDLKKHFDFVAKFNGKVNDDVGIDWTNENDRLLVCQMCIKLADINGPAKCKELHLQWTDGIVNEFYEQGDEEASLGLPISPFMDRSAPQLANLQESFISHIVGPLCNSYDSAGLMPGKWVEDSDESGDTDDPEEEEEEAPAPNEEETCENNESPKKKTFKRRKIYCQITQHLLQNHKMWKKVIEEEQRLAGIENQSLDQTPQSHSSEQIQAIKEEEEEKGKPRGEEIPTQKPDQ
Method: as §1

PDE4D = PDE4D (Homo sapiens, UniProt Q08499); assay: In vitro PDE selectivity assay, PDE4D; type: biochemical; conditions: Table 4a in vitro selectivity; read-out: IC50 PDE type 4D
Sequence of PDE4D (Q08499 whole entry, species assumed): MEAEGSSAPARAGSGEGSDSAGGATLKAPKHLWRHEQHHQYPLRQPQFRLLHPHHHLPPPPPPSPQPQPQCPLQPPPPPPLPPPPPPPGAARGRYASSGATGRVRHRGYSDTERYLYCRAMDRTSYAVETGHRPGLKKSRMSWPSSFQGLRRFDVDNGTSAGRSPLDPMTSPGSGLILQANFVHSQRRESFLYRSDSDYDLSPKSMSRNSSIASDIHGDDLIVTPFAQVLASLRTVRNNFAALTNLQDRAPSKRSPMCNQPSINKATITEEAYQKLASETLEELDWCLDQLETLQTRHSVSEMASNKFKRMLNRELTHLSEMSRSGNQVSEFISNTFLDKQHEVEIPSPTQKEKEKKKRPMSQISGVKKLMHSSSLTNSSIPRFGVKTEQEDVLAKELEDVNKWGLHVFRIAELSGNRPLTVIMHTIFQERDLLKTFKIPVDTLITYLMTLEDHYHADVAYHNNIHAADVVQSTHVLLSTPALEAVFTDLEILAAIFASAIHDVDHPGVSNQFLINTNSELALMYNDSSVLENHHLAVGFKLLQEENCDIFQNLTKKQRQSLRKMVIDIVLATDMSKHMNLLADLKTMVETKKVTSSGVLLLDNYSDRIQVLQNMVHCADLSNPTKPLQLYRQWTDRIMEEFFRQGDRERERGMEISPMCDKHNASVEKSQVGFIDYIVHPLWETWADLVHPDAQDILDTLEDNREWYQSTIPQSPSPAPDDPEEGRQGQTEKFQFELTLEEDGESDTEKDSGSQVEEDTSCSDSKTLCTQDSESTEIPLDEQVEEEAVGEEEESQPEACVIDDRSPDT
Method: as §1

PDE11A = PDE11A (Homo sapiens, UniProt Q9HCR9); assay: In vitro PDE selectivity assay, PDE11A; type: biochemical; conditions: Table 4a in vitro selectivity; read-out: IC50 PDE type 11A
Sequence of PDE11A (Q9HCR9 whole entry, species assumed): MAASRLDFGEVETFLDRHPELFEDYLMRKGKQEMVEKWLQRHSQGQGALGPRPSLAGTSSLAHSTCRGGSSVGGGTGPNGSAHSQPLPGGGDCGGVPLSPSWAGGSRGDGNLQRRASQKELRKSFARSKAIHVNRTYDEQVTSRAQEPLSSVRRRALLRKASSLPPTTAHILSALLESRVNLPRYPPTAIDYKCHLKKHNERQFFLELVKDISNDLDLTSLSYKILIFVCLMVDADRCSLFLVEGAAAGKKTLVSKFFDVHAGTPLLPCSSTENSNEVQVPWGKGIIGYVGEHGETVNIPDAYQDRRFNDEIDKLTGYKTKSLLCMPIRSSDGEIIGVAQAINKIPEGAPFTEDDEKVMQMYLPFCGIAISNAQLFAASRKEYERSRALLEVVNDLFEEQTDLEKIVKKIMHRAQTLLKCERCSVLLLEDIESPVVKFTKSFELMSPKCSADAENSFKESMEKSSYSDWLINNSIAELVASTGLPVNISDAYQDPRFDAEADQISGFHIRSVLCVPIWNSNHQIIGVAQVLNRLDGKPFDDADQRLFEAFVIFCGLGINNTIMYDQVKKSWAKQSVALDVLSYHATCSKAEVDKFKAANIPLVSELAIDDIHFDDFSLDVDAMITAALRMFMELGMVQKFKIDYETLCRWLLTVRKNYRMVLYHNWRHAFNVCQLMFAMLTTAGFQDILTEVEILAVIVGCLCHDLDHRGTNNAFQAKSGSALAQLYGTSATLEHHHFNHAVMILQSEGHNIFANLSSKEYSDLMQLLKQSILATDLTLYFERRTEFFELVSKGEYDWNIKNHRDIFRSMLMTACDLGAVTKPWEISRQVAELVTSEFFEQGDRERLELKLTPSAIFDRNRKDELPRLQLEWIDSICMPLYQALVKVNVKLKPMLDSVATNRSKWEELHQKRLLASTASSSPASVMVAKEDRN
Method: as §1

PDE10 = molecular target: T1, PDE10 (Rattus norvegicus, UniProt Q9QYJ6); assay: PDE10 occupancy ([3H]-MP-10, striatum); type: in vivo; conditions: rat, sc; occupancy, administered s.c.; read-out: Occ. ED50
T1 construct: from tissue; host or cells: rat brain sections, striatum (ex vivo autoradiography after in vivo dosing)
T1 sequence (Q9QYJ6 1-794): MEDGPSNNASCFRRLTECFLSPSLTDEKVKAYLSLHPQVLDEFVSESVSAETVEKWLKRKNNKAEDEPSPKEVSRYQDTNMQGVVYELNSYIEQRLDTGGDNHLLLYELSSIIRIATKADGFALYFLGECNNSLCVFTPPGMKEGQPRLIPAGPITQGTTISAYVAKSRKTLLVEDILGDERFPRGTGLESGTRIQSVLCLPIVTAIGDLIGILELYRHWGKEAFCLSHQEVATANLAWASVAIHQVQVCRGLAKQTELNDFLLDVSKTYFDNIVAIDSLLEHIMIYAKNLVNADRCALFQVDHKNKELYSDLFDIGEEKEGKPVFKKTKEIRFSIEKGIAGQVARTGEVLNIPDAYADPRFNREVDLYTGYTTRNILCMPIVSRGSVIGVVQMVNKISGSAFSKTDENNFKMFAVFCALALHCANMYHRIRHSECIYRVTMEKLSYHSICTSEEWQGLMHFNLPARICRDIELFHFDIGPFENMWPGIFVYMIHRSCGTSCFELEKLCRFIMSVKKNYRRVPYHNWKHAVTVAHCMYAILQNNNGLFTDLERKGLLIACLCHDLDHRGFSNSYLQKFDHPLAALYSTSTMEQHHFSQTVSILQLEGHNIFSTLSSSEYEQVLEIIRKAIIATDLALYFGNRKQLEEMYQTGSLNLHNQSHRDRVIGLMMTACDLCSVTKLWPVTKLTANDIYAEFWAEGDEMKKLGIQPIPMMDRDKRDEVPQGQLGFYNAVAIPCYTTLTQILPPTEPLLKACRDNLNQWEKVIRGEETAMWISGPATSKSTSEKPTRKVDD
Method: Dose-response or single dose experiments were performed to measure PDE10 occupancy 1 hour after subcutaneous (s.c.) or oral (p.o.) administration. Male Wistar rats (200 g) were treated by s.c. or p.o. administration of various PDE10 inhibitors. The PDE10 radioligand [^3H]-MP-10 (10 μCi/animal) was injected intravenously (i.v.) 30 minutes before sacrifice. Brains were immediately removed from the skull and rapidly frozen. Twenty μm-thick brain sections were cut using a cryostat-microtome, thaw-mounted on microscope slides and loaded in a β-imager to quantify PDE10 occupancy in the striatum.

[1] = tested on: PCP-induced hyperlocomotion; assay: PCP-induced hyperlocomotion in rats (PCP); type: in vivo; conditions: Rattus norvegicus
[2] = tested on: conditioned avoidance response; assay: Conditioned avoidance response (CAR) test; type: in vivo; conditions: Rattus norvegicus
Source text: Conditioned Avoidance Response (CAR) Test
The apparatus consisted of an inner box surrounded by an outer box. The inner box was composed of four walls of transparent, synthetic material (length×width×height: 30×30×30 cm), an open top, and a grid floor made of 15 pairs of iron bars (2 mm diameter; 6 mm inter-bar distance). Odd and even bars were connected with a source of alternative current (1.0 mA; Coulbourn Instruments Solid State Shocker/Distributor), which could be interrupted by a switch. The outer box was composed of the same material (length×width×height: 40×40×36 cm), also with an open top, with a distance of 5 cm between the inner and outer box on all sides. To decrease the amount of environmental stimuli, three walls of the outer box were made non-transparent. The front wall was left transparent to allow the necessary inspection of the animal during the test. The upper edge of the outer and inner box served as a target for the rats on which to jump with fore- and hind-paws, respectively.
From their arrival in the laboratory on the experimental day, male Wiga Wistar rats (230±30 g) were housed in individual cages provided with bedding material.
The rats were tested 3 times, i.e. at 60, 90 and 120 min after the injection of test compound or solvent. Latency to avoidance was recorded. The median avoidance response obtained over the three experimental sessions for each rat were used for further calculations.

Sequence of PDE1B (Q01064 whole entry): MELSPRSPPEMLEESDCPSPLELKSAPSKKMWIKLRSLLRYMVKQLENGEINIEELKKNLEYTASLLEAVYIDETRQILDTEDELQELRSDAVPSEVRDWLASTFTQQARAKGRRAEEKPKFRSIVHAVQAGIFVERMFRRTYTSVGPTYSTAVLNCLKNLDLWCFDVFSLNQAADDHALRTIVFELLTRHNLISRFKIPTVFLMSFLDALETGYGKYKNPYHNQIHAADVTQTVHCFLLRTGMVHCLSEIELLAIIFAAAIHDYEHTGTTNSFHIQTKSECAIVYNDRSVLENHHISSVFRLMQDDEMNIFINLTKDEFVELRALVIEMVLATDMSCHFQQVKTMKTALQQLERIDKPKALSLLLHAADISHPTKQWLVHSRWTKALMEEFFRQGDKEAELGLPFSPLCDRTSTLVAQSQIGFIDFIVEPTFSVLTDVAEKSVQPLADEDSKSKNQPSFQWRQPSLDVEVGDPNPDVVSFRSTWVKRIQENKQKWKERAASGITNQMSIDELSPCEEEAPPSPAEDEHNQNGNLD

Compound: Cc1nc2c(N3CCOCC3)nccn2c1-c1ccc(C2CCOCC2)nc1 [compound 25, 2-Methyl-8-morpholin-4-yl-3-[6-(tetrahydro-pyran-4-yl)-pyridin-3-yl]-imidazo[1,2-a]pyrazine]
- IC50 (PDE1B): > 100 µM
- IC50 (PDE3A): 112 µM
- IC50 (PDE4D): 58.9 µM
- IC50 (PDE11A): 66.1 µM
- ED50 (PDE10): 4.6 mg/kg
- ED50 [1]: 2 mg/kg
- ED50 [2]: 4.1 mg/kg
